Experiments:
[1] = system: SU-DHL-10 cell line (human B cell lymphoma); assay: Cell cytotoxicity in SU-DHL-10 cell line (CellTiter-Glo); type: cell-based; details: 72 h treatment, CTG
Protocol: Certain Example compounds of the invention and Comparator Compound 1 were tested in the SU-DHL-10 cell line (human B cell lymphoma). Compounds which show efficacy in this assay are expected to be useful as agents for treating or preventing hyperproliferative disorders such as cancer.
(§1) Cells were seeded in 96-well microplates and treated with compounds or cisplatin (as a positive control) at 9 increasing concentrations in technical triplicate. […] On day 1, 90 μL of various cell suspensions with the number of cells ranging from 5000-8000 cells/well were seeded into wells of a 96-well plate (Corning). The number of cells to be seeded was previously determined. • 2. All 96-wells plates with cells were placed in an incubator overnight at 37° C. with 5% CO2. • 3. On day 2, cells were observed under a microscope ensuring the cells treated with vehicle control were in good condition. • 4. A dilution series of the test compounds and cisplatin were prepared at 10× the final concentrations required. 10 μL/well of 10× compound solution was added to the corresponding plates. The final volume was 100 μL/well for all the plates. Final DMSO concentration was 0.1%. • 5. On day 5 (after 72 hours of incubation), 50 μL of CTG reagent was added to each well. • 6. Contents were mixed for 5 minutes on an orbital shaker to facilitate cell lysis. • 7. The plate was allowed to incubate at room temperature for 10 minutes to stabilize luminescent signals.
Luminescence was recorded using an EnVision Multi Label Reader. Data analysis was performed using GraphPad Prism 8.0.
To calculate IC50, a concentration-response curve was generated using a nonlinear regression model with a sigmoidal concentration response. The formula for calculating the % of viable cells was shown below, and the IC50s are automatically generated by GraphPad Prism 8.0.
(LumTest article=luminescence in test article treated well; LumNone treated=luminescence in vehicle treated well; LumMedium control=luminescence in a well containing only medium and no cells; LumNone treated-LumMedium control was set as 100%)

rat hepatocytes = assay: Hepatocyte metabolic stability, rat; type: in vitro ADME
Protocol: (§2) Biological Example 6: Rat hepatocyte half life Certain Example compounds and Comparator Compound 1 were tested for metabolic stability in a metabolic assay using mouse- and rat-derived hepatocytes. Compounds having good metabolic stability in the assay are expected to be especially useful as agents for preventing and/or treating cancer, by having a long half-life in human patients.
(§3) Frozen pooled rat and mouse hepatocytes obtained from LifeTechnologies were thawed and purified according to the manufacturer's instructions. The test compound (4 mM) in DMSO was diluted with acetonitrile to provide a 100 μM sub-stock then further diluted with pH 7.4 Krebs-Henseleit buffer (supplemented with CaCl2, NaHCO3, HEPES, fructose and glycine) to provide a 2 μM working solution. 25 μL of working solution was incubated at 37° C., treated with 25 μL of rat or mouse hepatocyte suspension (containing 1×10^6 cells/mL) and incubated at 37° C. with 5% CO2 level at 95% relative humidity. Wells were incubated for an appropriate time (0, 15, 30, 45, 60 and 75 min) then quenched with 250 μL of acetonitrile containing reference standards diltiazem, 7-ethoxycoumarin and propranolol). The plates were shaken, sonicated for 5 min then cooled to 4° C. until all sampling was complete. All plates were centrifuged at 4000 rpm for 20 min to pellet the debris. 110 μL supernatant was diluted 110 μL water and quantitated using LC-MS/MS.
(§4) A linear regression curve was fitted to a plot of natural logarithm (In) of AUC against time. The T-half (min)=0.693/slope

Caco-2 cells = assay: Caco-2 cell permeability assay; type: in vitro ADME; details: apical to basal Papp, 2 μM, pH 7.4, 2.5 h
Protocol: (§5) Certain Example compounds and Comparative Example 1 were tested for their apical to basal (AB) and basal to apical (BA) permeability in Caco-2 cells.
(§6) Cell Culture: Caco-2 cells were grown for 10 days in 96-well plates in HBSS buffer containing 10 mM HEPES. Both the apical and basal pH was buffered at pH 7.4. The apical/basal volumes were 75 μl and 250 μl respectively. The incubation time was 2.5 h at 37° C. (without shaking) under 5% CO2 & 95% relative humidity.
(§7) Cell Seeding: Cells were seeded at a density of 18750 cells/well (membrane area=0.0804 cm^2) in a 96 well plate.
(§8) AB Assay: 75 μl of cell suspension was added at a density 2.5×10^5 cells/ml to the apical wells. 40 ml media was added to the feeder tray. The plates were placed in the incubator (37° C., 5% CO2 and controlled humidity). The Caco-2 cells were grown for 10 days with a media change on every alternate day.
(§9) BA Assay: 25 μl of cell suspension was added at a density of 7.5×10^5 cells/ml to the bottom side (keeping the plate upside down) of apical wells. The plate (upside down position) was placed in the incubator (37° C., 5% CO2 and 95% Relative humidity) for 2 h. The plate was turned right side up. 75 μl media was added to the apical wells and 40 ml media to the feeder tray.
(§10) Permeablity Assay: The apical and basal wells were washed with buffer (pH 7.4) and 250 μl buffer was added to the wells of the basal plate. 75 μl of compound solution (2 μM, dissolved in water with 1% DMSO) was transferred to the apical wells (n=2). The apical plate was placed onto the basal plate. The lid was placed on to prevent evaporation. The assembly was incubated at 37° C. for 2.5 h (without shaking) under 5% CO2 and 95% relative humidity. After incubation the apical plate was separated from the basal plate. Aliquots were taken out from the acceptor and donor wells, diluted and quantified using LC-MS/MS along with initial donor samples.
(§11) Membrane Integrity Test: Solution in the apical wells was discarded by inverting the plate and soaking onto tissue paper. 250 μl buffer (pH 7.4) was added to each well of basal plate and 75 μl of Lucifer Yellow (LY; 0.1 mg/ml) in buffer (pH 7.4) to the wells of apical plate. The apical plate was placed onto the basal plate and the lid used to prevent evaporation. The assembly was incubated at 37° C. for 1 h (without shaking) under 5% CO2 and 95% relative humidity. The apical plate was separated from the basal plate. Fluorescence (Ex: 432 nm, Em: 530 nm) of aliquots (100 ul) was measured from basal wells. Fluorescence of 100 μl buffer (pH 7.4) and 100 μl LY(0.1 mg/ml) was also measured. Wells having more than 1% fluorescence intensity with respect to 0.1 mg/ml LY were considered non-integrated membrane. Such wells, if any, were not considered for permeability calculation.
(§12) Calculation: Drug was detected and quantified by LC-MS/MS. Data generated took the form of an apparent permeability (Papp) value. Papp=[Va/(AreaxTime)]×(LC-MS Area of Acceptor sample×Sample dilution factor/LC-MS Area of Initial Donor). Va=Volume of Acceptor Well (in ml)=0.25, Vd=Volume of Donor Well (in ml)=0.075, Area=Surface area of the membrane (cm2)=0.0804, Time=Time of incubation (sec)=9000 Results: The results of the assay are shown in Table 3 below.

[2] = Caco-2 cell permeability assay; type: in vitro ADME; details: human, Caco-2, pH 7.4, basal to apical Papp, pH 7.4, 2.5 h
Protocol: as §5, §6, §7, §8, §9, §10, §11, §12

mouse hepatocytes = assay: Hepatocyte metabolic stability, mouse; type: in vitro ADME
Protocol: as §2, §3, §4

[3] = system: CA46 (human B cell lymphoma); assay: Cell cytotoxicity CellTiter-Glo, CA46; type: cell-based
Protocol: as §1, with “signals. […]” for “signals.”

[4] = system: HT1080 (human fibrosarcoma); assay: Cell cytotoxicity CellTiter-Glo, HT1080; type: cell-based; details: HT-1080
Protocol: as §1, with “signals. […]” for “signals.”

[5] = system: MX-1 (human breast carcinoma); assay: Cell cytotoxicity CellTiter-Glo, MX-1; type: cell-based; details: MX1
Protocol: as §1, with “signals. […]” for “signals.”

[6] = system: RKO (human colon carcinoma); assay: Cell cytotoxicity CellTiter-Glo, RKO; type: cell-based
Protocol: as §1, with “signals. […]” for “signals.”

[7] = system: DU4475 (human breast carcinoma); assay: Cell cytotoxicity CellTiter-Glo, DU4475; type: cell-based; details: DU-4475
Protocol: as §1, with “signals. […]” for “signals.”

[8] = system: NCI-H1703 (human lung squamous cell carcinoma); assay: Cell cytotoxicity CellTiter-Glo, NCI-H1703; type: cell-based
Protocol: as §1, with “signals. […]” for “signals.”

[9] = system: LYXFDLBC4113 (patient-derived xenograft lymphoma); assay: Cell cytotoxicity CellTiter-Glo, LYXFDLBC4113; type: cell-based
Protocol: as §1
(§13) The effects of Comparator Compound 1 and certain Example compounds on the viability of various cell lines (LYXFDLBC2835, LYXFDLBC4009 and LYXFDLBC411 (patient-derived xenograft lymphoma), HT1080 (human fibrosarcoma), CA46 (human B cell lymphoma), RKO (human colon carcinoma), NCI-H1703 (human lung squamous cell carcinoma), MX-1 (human breast carcinoma), DU4475 (human breast carcinoma), LU2511 (human lung large cell undifferentiated carcinoma), LU0884 (human lung squamous cell carcinoma)), Panc-1 (human pancreatic carcinoma), MCF-7 (human breast cancer), SW480 (human colon adenocarcinoma) and HCC1806 (human breast ductal carcinoma) were performed using the standard CellTiter-Glo assay (CTG, Promega) as described in Biological Example 2. Compounds which show efficacy in these assays are expected to be useful as agents for treating or preventing hyperproliferative disorders such as cancer.

[10] = system: LYXFDLBC2835 (patient-derived xenograft lymphoma); assay: Cell cytotoxicity CellTiter-Glo, LYXFDLBC2835; type: cell-based
Protocol: as §1, §13

DOHH-2 tumor cells = assay: Subcutaneous xenograft DOHH-2 lymphoma model; type: in vivo, CB17/SCID mice
Protocol: The in vivo efficacy of certain Example compounds was assessed in a subcutaneous xenograft DOHH-2 Lymphoma Model using 10 female 6-8 week old CB17/SCID Mice. Each mouse was inoculated subcutaneously at the right front region with DOHH-2 tumor cells (5×10^6) in 0.1 ml of PBS mixed with matrigel (1:1 PBS:matrigel) for tumor development. The test compound administration started once the mean tumor size reached approximately 100-150 mm^3.
Compounds were administered either IP (vehicle 10 mM sodium phosphate+0.2% Tween-80 (pH7.4) or orally (vehicle 15 Na2HPO4 buffer (10 mM) (pH 4.5)+0.2% tween 80). Tumor volumes were measured in two dimensions using a caliper, and the volume expressed in mm^3 using the formula: V=(L×W×W)/2, where V is tumor volume, L is tumor length (the longest tumor dimension) and W is tumor width (the longest tumor dimension perpendicular to L).
Mice were dosed with Example 21 orally (12.5 or 25 mg/kg) once a day for 9 consecutive days (FIG. 3). Example 5 was dosed intraperitoneally (7 or 20 mg/kg) in a cycle consisting of administration QD for three days followed by a three day no-dosing period followed by QD dosing for a further three days (FIG. 4). Example 12 was dosed intraperitoneally (0.7 or 2 mg/kg) in a cycle consisting of administration QD for three days followed by a three day no-dosing period followed by QD dosing for a further three days (FIG. 5). In a separate study Example 12 was dosed at […] in a cycle consisting of administration QD for two days followed by either four or six day no-dosing period, and this cycle was repeated three times (FIG. 6).

[11] = system: LYXFDLBC4009 (patient-derived xenograft lymphoma); assay: Cell cytotoxicity CellTiter-Glo, LYXFDLBC4009; type: cell-based
Protocol: as §1, §13

In the case of `CNCc1cnc2ccc(-c3ccc(F)cc3OCCc3c(C(C)O)nn(C)c3C)cn12` (centres unmarked) [Example 1, 1-{4-[2-(5-fluoro-2-{3-[(methylamino)methyl]imidazo[1,2-a]pyridin-6-yl}phenoxy)ethyl]-1,5-dimethyl-1H-pyrazol-3-yl}ethan-1-ol], the IC50 ([1]; Homo sapiens, SU-DHL10, 72 h) is reported as 15.3 nM, the “rHeps t^1/2” value (rat hepatocytes) is reported as 68 min and the “Caco-2 A-B” value (Caco-2 cells) is reported as 0.1 ×10⁻⁶ cm/s. For the same compound, the Papp B→A at 2.5 h, 2 μM [2] was 14.1 ×10⁻⁶ cm/s.

For `CNCc1cnc2ccc(-c3ccc(F)c(F)c3OCCc3c(C(O)C(C)(C)C)nn(C)c3C)cn12` (single isomer, unassigned) [Example 14, 1-(4-(2-(2,3-difluoro-6-(3-((methylamino)methyl)imidazo[1,2-a]pyridin-6-yl)phenoxy)ethyl)-1,5-dimethyl-1H-pyrazol-3-yl)-2,2-dimethylpropan-1-ol], the IC50 [1] was 0.4 nM, the “mHeps t^1/2” value (mouse hepatocytes) was 26.73 min and the “rHeps t^1/2” value (rat hepatocytes) was 18 min. The IC50 [3] was 2 nM, the IC50 [4] was 1 nM and the “Caco-2 A-B” value (Caco-2 cells) was 0.215 ×10⁻⁶ cm/s. The Papp B→A at 2.5 h, 2 μM [2] was 5.14 ×10⁻⁶ cm/s, the IC50 [5] was 1.4 nM and the IC50 [6] was 2 nM. The IC50 [7] was 20 nM and the IC50 [8] was 4 nM.

With `Cc1c(CCOc2c(-c3ccc4ncc(CN(C)C)n4c3)ccc(F)c2F)c(C(C)O)nn1C` (centres unmarked) [Example 6, 1-(4-(2-(6-(3-((dimethylamino)methyl)imidazo[1,2-a]pyridin-6-yl)-2,3-difluorophenoxy)ethyl)-1,5-dimethyl-1H-pyrazol-3-yl)ethan-1-ol] the IC50 ([1]; Homo sapiens, SU-DHL10, 72 h) was 5 nM, the “rHeps t^1/2” value (rat hepatocytes) was 15 min and the “Caco-2 A-B” value (Caco-2 cells) was 3.04 ×10⁻⁶ cm/s. The Papp B→A at 2.5 h, 2 μM [2] was 22 ×10⁻⁶ cm/s.

Work on `CNCc1cnc2ccc(-c3ccc(F)c(F)c3OCCc3c(C(C)(C)O)nn(C)c3C)cn12` [Example 21, 2-(4-(2-(2,3-difluoro-6-(3-((methylamino)methyl)imidazo[1,2-a]pyridin-6-yl)phenoxy)ethyl)-1,5-dimethyl-1H-pyrazol-3-yl)propan-2-ol] yielded an IC50 ([1]; Homo sapiens, SU-DHL10, 72 h) of 0.4 nM, an IC50 [9] of 23 nM and an IC50 [10] of 54 nM. For the same compound, the “tumour volume compared to vehicle” value (DOHH-2 tumor cells; oral dosing 12.5 or 25 mg/kg once a day for 9 days) was “significant reduction in tumour volume or reduced growth in tumour volume” and the IC50 [11] was 35 nM.

For `CNCc1cnc2ccc(-c3ccc(F)c(F)c3OCCc3c(C(C)O)nn(C)c3C)cn12` (centres unmarked) [Example 5, 1-{4-[2-(2,3-difluoro-6-{3-[(methylamino)methyl]imidazo[1,2-a]pyridin-6-yl}phenoxy)ethyl]-1,5-dimethyl-1H-pyrazol-3-yl}ethan-1-ol], the IC50 ([1]; Homo sapiens, SU-DHL10, 72 h) was 5.9 nM, the “tumour volume compared to vehicle” value (DOHH-2 tumor cells; intraperitoneal dosing (Example 5: 7 or 20 mg/kg; Example 12: 0.7 or 2 mg/kg), QD cycles) was “significant reduction in tumour volume or reduced growth in tumour volume” and the “mHeps t^1/2” value (mouse hepatocytes) was 51.17 min. For the same compound, the “Caco-2 A-B” value (Caco-2 cells) was 0.195 ×10⁻⁶ cm/s and the Papp B→A at 2.5 h, 2 μM [2] was 16 ×10⁻⁶ cm/s.
